The record followed here is US20230106583A1, “HETEROARYL COMPOUNDS” (Vivace Therapeutics, Inc., priority 2019, published 2023).

Molecules are shown by their SMILES.

The test system of this assay is HEK293T cells stably transfected with 8XTBD luciferase reporter and pRLTK. As to the kind of experiment: YAP Reporter Assay (8XTBD-driven firefly luciferase). To be noted: Homo sapiens, HEK-293T; HEK293T 8XTBD luciferase reporter; 24-hr incubation with compounds; top concentration 3 μM, 10 points. The assay is classed as cell-based. The protocol: HEK293T cells stably transfected with 8XTBD luciferase reporter and pRLTK in 384-well plates were treated with the test compounds, starting from 3 μM (final concentration in assay plate), 1:3 dilution, and 10 points in quadruplicates. Post 24-hr incubation with compounds at 37° C. and 5% CO2, cells were lysed and 8XTBD-driven firefly luciferase and control TK-driven renilla luciferase activities were measured using Promega Dual-Luciferase Reporter Assay System.
Reagents: The reagents used for this study are: DMEM: Invitrogen #11960077, Dual-Glo Luciferase Assay System: Promega-E2980, Puromycin Dihydrochloride: Invitrogen-A1113803, 384-well plate: PerkinElmer-6007480, L-GLUTAMINE: Invitrogen-25030164, Hygromycin B: Invitrogen-10687010, and Penicillin-Streptomycin: Merk-TMS-AB2-C
Media: The media used for this assay were: Culture Medium: DMEM+1 ug/mL puromycin+200 ug/mL hygromycin (with 10% FBS+1 mM L-glutamine); and Assay Medium: DMEM (with 10% FBS+1 mM L-glutamine+1×P/S).
Cell Plating: The appropriate media was warmed at 37° C. by water bath: Culture Medium, Assay Medium, 1*D-PBS, 0.05% trypsin-EDTA. The cells were trypsinized after removing all media, then washed with 1*sterile D-PBS and then with 2 ml 0.05% trypsin-EDTA. The cells were then incubated at RT for one minute. Then 10 ml/75 cm2 flask Assay Medium was added to each flask. Using a 10 ml pipette, the cells were then gently resuspended in the media, until the clumps completely disappeared. The cells were then transferred into 50 ml centrifuge tubes and were centrifuged at 800 rpm for 5 mins. The medium was removed and the cells were resuspended with Assay Medium. An aliquot of cells was used to count the cell density (cells/ml). The cell suspension was then diluted with Assay Medium to a concentration of 6×10^4 cells/ml. 50 ul cells suspension was then plated to 384-well plate (PerkinElmer-6007480), 3×10^3 cells/well and the cells were incubated in an incubator at 37° C., 5% CO2.
Compound Treatment: In the afternoon (incubation of the plate with 3-4 hrs), the test compounds were added by Echo, starting from 3 uM (final concentration in the assay plate), 1:3 dilution, 10 points, quadruplicates. The plate was placed at 37° C., 5% CO2 incubator for 24 hrs.
Detection: The Dual-Glo Luciferase Reagent was prepared by transferring the contents of one bottle of Dual-Glo Luciferase Buffer to one bottle of Dual-Glo Luciferase Substrate to create the Dual-Glo Luciferase Reagent. Mixing was performed by inversion until the substrate was thoroughly dissolved. After mixing, the reagent was aliquoted into 15 ml tubes. In the afternoon (24 hrs post compound treatment), the DMEM+medium in the 384 well plates were aspirated by Microplate Washer.
Measuring firefly luciferase activity: 20 ul Dual-Glo Luciferase Reagent was added to the 384-well plates. The plates were protected from light to prevent interference with the assay. The plates were shaken for 1 min followed centrifuging plates at 1000 rpm for 30 seconds. After waiting at least 10 minutes, the firefly luminescence was measured by Envision.
Measuring renilla luciferase activity: 20 ul Stop-Glo Reagent was added to the 384-well plates. The plates were shaken for 1 min and then centrifuged at 1000 rpm for 30 seconds. After waiting at least 10 minutes, the renilla luminescence was measured by Envision.
Compound IC50 and maximum inhibition on the firefly luciferase and renilla luciferase activities were reported separately.

Broadly, the IC50 is the point on the concentration scale where inhibition reaches its midpoint. As to `C[C@@]1(c2nnc(-c3cccnc3Nc3ccc(S(F)(F)(F)(F)F)cc3)o2)CCNC1=O` [Compound 36, (3S)-3-methyl-3-[5-[2-[4-(pentafluoro-λ^6-sulfanyl)anilino]-3-pyridyl]-1,3,4-oxadiazol-2-yl]pyrrolidin-2-one], the IC50 was at most 100 nM.
The same measure for `CC1(c2nnc(-c3cccnc3Nc3ccc(C(F)(F)F)cc3)o2)OCCNC1=O` (stereo not shown) [Compound 37, 2-methyl-2-(5-(2-((4-(trifluoromethyl)phenyl)amino)pyridin-3-yl)-1,3,4-oxadiazol-2-yl)morpholin-3-one]: at most 100 nM; for `CC1(c2nnc(-c3cccnc3Nc3ccc(C(F)(F)F)cc3)o2)CC(N)=NC1=O` (stereo not shown) [Compound 38, 2-amino-4-methyl-4-[5-[2-[4-(trifluoromethyl)anilino]-3-pyridyl]-1,3,4-oxadiazol-2-yl]-3H-pyrrol-5-one]: at most 100 nM.
The same measure for `C[C@@]1(c2nnc(-c3cccnc3Nc3ccc(C(F)(F)F)cc3)o2)CCCNC1=O` [Compound 39, (S)-3-methyl-3-(5-(2-((4-(trifluoromethyl)phenyl)amino)pyridin-3-yl)-1,3,4-oxadiazol-2-yl)piperidin-2-one]: at most 100 nM; for `C[C@]1(c2nnc(-c3cccnc3Nc3ccc(C(F)(F)F)cc3)o2)CCCNC1=O` [Compound 40, (R)-3-methyl-3-(5-(2-((4-(trifluoromethyl)phenyl)amino)pyridin-3-yl)-1,3,4-oxadiazol-2-yl)piperidin-2-one]: 100 to 1000 nM; for `C[C@]1(n2nnc(-c3cccnc3Nc3ccc(C(F)(F)F)cc3)n2)CCNC1=O` [Compound 42, (3S)-3-methyl-3-[5-[2-[4-(trifluoromethyl)anilino]-3-pyridyl]tetrazol-2-yl]pyrrolidin-2-one]: at most 100 nM.
For `C[C@@]1(n2nnc(-c3cccnc3Nc3ccc(C(F)(F)F)cc3)n2)CCNC1=O` [Compound 43, (3R)-3-methyl-3-[5-[2-[4-(trifluoromethyl)anilino]-3-pyridyl]tetrazol-2-yl]pyrrolidin-2-one] the value was at most 100 nM; for `CCN(C#N)Cc1nnc(-c2nccnc2Nc2ccc(C(F)(F)F)cc2)o1` [Compound 44, ethyl-[[5-[3-[4-(trifluoromethyl)anilino]pyrazin-2-yl]-1,3,4-oxadiazol-2-yl]methyl]cyanamide], at most 100 nM; for `CN(C#N)Cc1nnc(-c2nccnc2Nc2ccc(C(F)(F)F)cc2)o1` [Compound 45, methyl-[[5-[3-[4-(trifluoromethyl)anilino]pyrazin-2-yl]-1,3,4-oxadiazol-2-yl]methyl]cyanamide], at most 100 nM.
Take `CNCc1nnc(-c2nccnc2Nc2ccc(C(F)(F)F)cc2)o1` [Compound 48, 3-[5-(methylaminomethyl)-1,3,4-oxadiazol-2-yl]-N-[4-(trifluoromethyl)phenyl]pyrazin-2-amine]: the IC50 was in the range of 1000 to 3000 nM.
